Test [1] concerns Escherichia coli. As to the kind of experiment: The compound is evaluated for inhibitory concentration against Escherichia coli and is expressed as minimum inhibitory concentration (MIC); active. It counts as functional, organism-based.
The subject of test [2] is Nucleic Acid. In words: Inhibitory concentration against DNA dependent RNA polymerase in Escherichia coli. Format: nucleic-acid assay.
Test [3] relates to Escherichia coli. In words: The compound is evaluated for inhibitory concentration against Escherichia coli and is expressed as minimum inhibitory concentration (MIC). Format: functional.
Test [4] concerns Nucleic Acid. As to the kind of experiment: Inhibitory concentration against DNA dependent RNA polymerase in E. coli; Non active. It counts as nucleic-acid assay, Escherichia coli.
For test [5], the system named is Escherichia coli. In words: The compound is evaluated for inhibitory concentration against Escherichia coli and is expressed as minimum inhibitory concentration (MIC); Non active. Format: functional, organism-based.
Where [6] appears, read: Escherichia coli, read-out: MIC.

≈ marks a conversion by molar mass, not a printed value. Calls of active or inactive are those of the source. The rule behind the calls is not given here.

For orientation: MIC means the least concentration at which growth counts as inhibited. `COC1/C=C/OC2(C)Oc3c(C)c(O)c4c(c3C2=O)-c2[n-]c3ccc(Br)c[n+]3c2/C(=N/C(=O)/C(C)=C\C=C\C(C)C(O)C(C)C(O)C(C)C(OC(C)=O)C1C)C4=O` (configuration not stated): the MIC entry in the test with Escherichia coli [1] is “Active”. The compound `CO[C@H]1/C=C/O[C@@]2(C)Oc3c(C)c(O)c4c(O)c(cc(O)c4c3C2=O)NC(=O)/C(C)=C\C=C\[C@H](C)[C@H](O)[C@@H](C)[C@@H](O)[C@@H](C)[C@H](OC(C)=O)[C@@H]1C` (stereo in doubt; form 1) [RIFAMYCIN] returned an IC50 in the test with Nucleic Acid [2] of 15 nM/unit. This compound also returned an MIC with Escherichia coli [3] of 3 µg/mL (≈ 4.3 µM). With `COC1=N\C2=CC(=O)c3c(c(O)c(C)c4c3C(=O)C(C)(O/C=C/C(OC)C(C)C(OC(C)=O)C(C)C(O)C(C)C(O)C(C)/C=C/C=C\1C)O4)C2=O` (configuration not stated), the IC50 result in the test with Nucleic Acid [4] is “Not Active”.

In the case of `COC1/C=C/OC2(C)Oc3c(C)c(O)c4c(c3C2=O)C(=O)C=C(NC(=O)C(C)CCCC(C)C(O)C(C)C(O)C(C)C(OC(C)=O)C1C)C4=O` (configuration not stated), the IC50 in the test with Nucleic Acid [2] was 1600 nM/unit.

`COc1c(C)c2c3c4c(O)cc5c(c14)OC(N5)/C(C)=C\C=C\C(C)C(O)C(C)C(O)C(C)C(OC(C)=O)C(C)C(OC)/C=C/OC(C)(O2)C3=O` (configuration not stated): the IC50 entry with Nucleic Acid [4] is recorded as “Not Active”. Moreover, the MIC result in the test with Escherichia coli [5] was “inactive”. For the compound `COC1/C=C/OC2(C)Oc3c(C)c(O)c4c(c3C2O)C(=O)C=C(NC(=O)/C(C)=C\C=C\C(C)C(OC(C)=O)C(C)C(O)C(C)C(OC(C)=O)C1C)C4=O` (configuration not stated), in the test on Nucleic Acid [4], the IC50 result is “Not Active”. Also, the MIC entry in the test on Escherichia coli [5] is “inactive”. Regarding `CO[C@H]1/C=C/O[C@@]2(C)Oc3c(C)c(O)c4c(O)c(c(/C=N/N5CCN(C)CC5)c(O)c4c3C2=O)NC(=O)/C(C)=C\C=C\[C@H](C)[C@H](O)[C@@H](C)[C@@H](O)[C@@H](C)[C@H](OC(C)=O)[C@@H]1C` [RIFAMPIN], in the test with Escherichia coli [3] (setting [6]), the minimal inhibitory concentration (MIC) was determined as 20 µg/mL (≈ 24.3 µM). Still for that read-out and setting: the figure for `COC1/C=C/OC2(C)Oc3c(C)c(O)c4c(c3C2=O)C2(C=C(NC(=O)/C(C)=C\C=C\C(C)C(O)C(C)C(O)C(C)C(OC(C)=O)C1C)C4=O)OCC(=O)O2` (configuration not stated) is 75 µg/mL (≈ 99.5 µM). Take `CO[C@H]1/C=C/O[C@@]2(C)Oc3c(C)c(O)c4c(O)c(cc(O)c4c3C2=O)NC(=O)/C(C)=C\C=C\[C@H](C)[C@H](O)[C@@H](C)[C@@H](O)[C@@H](C)[C@H](OC(C)=O)[C@@H]1C` (stereo in doubt; form 2) [RIFAMYCIN]: the IC50 in the test with Nucleic Acid [2] came out at 85 nM/unit. In addition, the MIC in the test on Escherichia coli [3] came to 25 µg/mL (≈ 35.8 µM).

With `COC1/C=C/OC2(C)Oc3c(C)c(O)c4c(O)c(cc(OCC(=O)Nc5ccc(I)cc5)c4c3C2=O)NC(=O)/C(C)=C\C=C\C(C)(O)C(=O)C(C)C(O)C(C)C(OC(C)=O)C1C` (configuration not stated), in the test with Nucleic Acid [4], the IC50 result is given as “Not Active”. The MIC result in the test with Escherichia coli [5] is “inactive”. In turn, `COC1/C=C/OC2(C)Oc3c(C)c(O)c4c(c3C2O)C(=O)C=C(NC(=O)/C(C)=C\C=C\C(C)C(O)C(C)C(O)C(C)C(OC(C)=O)C1C)C4=O` (configuration not stated) yielded an IC50 with Nucleic Acid [2] of 50 nM/unit.

As to `CCN(CC)c1nc2c(s1)c1c(O)c3c(O)c(C)c4c(c32)C(=O)[C@@](C)(O/C=C/[C@H](OC)[C@@H](C)[C@@H](OC(C)=O)[C@H](C)[C@H](O)[C@H](C)[C@@H](O)[C@@H](C)/C=C/C=C(/C)C(=O)N1)O4` [RIFAMEXIL], the MIC in the test on Escherichia coli [3] (setting [6]) worked out at 32 µg/mL (≈ 39.5 µM). With `COC1/C=C/OC2(C)Oc3c(C)c(O)c4c(c3C2=O)C(=O)C=C(NC(=O)/C(C)=C\C=C\C(C)C(O)C(C)C(O)C(C)C(OC(C)=O)C1C)C4=O` (configuration not stated), in the test with Nucleic Acid [2], the IC50 worked out at 50 nM/unit. For the same compound, the MIC in the test on Escherichia coli [3] (setting [6]) is 12 µg/mL (≈ 17.2 µM). For the compound `COC1/C=C/OC2(C)Oc3c(C)c(O)c4c(c3C2O)C(=O)C=C(NC(=O)/C(C)=C\C=C\C(C)C2OC(C)(C)OC(C(C)C(O)C1C)C2C)C4=O` (configuration not stated), the IC50 result in the test with Nucleic Acid [4] is “Not Active”. For the same compound, the MIC entry in the test with Escherichia coli [5] is “inactive”.

For `COC1/C=C/OC2(C)Oc3c(C)c(O)c4c(c3C2=O)C(=O)C=C(NC(=O)/C(C)=C\C(=O)C2CC2C(O)C(C)C(O)C(C)C(OC(C)=O)C1C)C4=O` (configuration not stated) [TOLYPOMYCINONE], the IC50 entry in the test on Nucleic Acid [4] was “Not Active”. In addition, the MIC entry in the test with Escherichia coli [5] was “inactive”.

For the compound `COC1=N/C2=CC(=O)c3c(c(O)c(C)c4c3C(=O)C(C)(O/C=C/C(OC)C(C)C(OC(C)=O)C(C)C(O)C(C)C(O)C(C)\C=C/C=C\1C)O4)C2=O` (configuration not stated), in the test with Escherichia coli [5], the MIC result was “inactive”. With `COC1/C=C/C2OC3(C)C4c5c(c(C)c(O)c6c5C(=O)C=C(NC(=O)/C(C)=C\C=C\C(C)C5OC(C)(C)OC(C(C)C(O)C1C)C5C)C6=O)OC43O2` (configuration not stated), in the test on Nucleic Acid [4], the IC50 entry is reported as “Not Active”. In addition, in the test on Escherichia coli [5], the MIC result was “inactive”. Consider `COC(=O)C1=C2NC(=O)/C(C)=C\C=C\C(C)C(O)C(C)C(O)C(C)C(OC(C)=O)C(C)C(OC)/C=C/OC3(C)Oc4c(C)c(O)c(c(c4C3=O)C1=O)C2=O` (configuration not stated), for which the IC50 with Nucleic Acid [2] was determined as 20 nM/unit.

Source of the values: ChEMBL document CHEMBL1131262, “Comprehensive study on structure-activity relationships of rifamycins: discussion of molecular and crystal structure and spectroscopic and thermochemical properties of rifamycin O” (J Med Chem, 1998).
